Assay results published in the NIST ThermoML archive (doi:10.1016/j.jct.2016.02.016).

Columns and labels:
[1] = 101.33 kPa, Liquid; for speed of sound: Sing-around technique in a fixed-path interferometer; for mass density: Vibrating tube method
[2] = refractive index (Na D-line) (dimensionless); settings: 101.33 kPa, Liquid, Standard Abbe refractometry
[3] = xn = mol fraction of the nth substance listed; settings: 100 kPa, Liquid; for speed of sound: Frequency=3 MHz, Sing-around technique in a fixed-path interferometer; for mass density: Vibrating tube method
[4] = refractive index (Na D-line) (dimensionless); xn = mol fraction of the nth substance listed; settings: 100 kPa, Liquid, Standard Abbe refractometry

CCCCCC(C)=O [2-heptanone]
Settings | mass density, 293.15 K [kg/m3] | mass density, 298.15 K [kg/m3] | mass density, 303.15 K [kg/m3] | refractive index, 298.15 K | speed of sound, 293.15 K [m/s] | speed of sound, 298.15 K [m/s] | speed of sound, 303.15 K [m/s]
[1] | 815.39 | 811.08 | 806.81 | – | 1282.1 | 1262.7 | 1244.4
[2] | – | – | – | 1.40688 | – | – | –

CCCCCC(C)=O [2-heptanone] + CN(C)C=O
298.15 K
Settings | mass density, [3] [kg/m3] | refractive index, [4] | speed of sound, [3] [m/s]
x2 = 0 | 811.08 | 1.40688 | 1262.7
x2 = 0.053 | 815.095 | 1.40756 | 1268.2
x2 = 0.0936 | 818.298 | 1.40811 | 1272.9
x2 = 0.1502 | 822.964 | 1.4089 | 1279
x2 = 0.2011 | 827.389 | 1.40962 | 1285.3
x2 = 0.2495 | 831.808 | 1.41034 | 1291.3
x2 = 0.296 | 836.272 | 1.41107 | 1297.5
x2 = 0.3419 | 840.896 | 1.41182 | 1304
x2 = 0.3963 | 846.646 | 1.41276 | 1312.2
x2 = 0.4324 | 850.691 | 1.41341 | 1318
x2 = 0.4957 | 858.13 | 1.41462 | 1328.7
x2 = 0.5537 | – | 1.41582 | –
x2 = 0.5985 | 871.481 | 1.41679 | 1348.2
x2 = 0.6368 | 876.894 | 1.41766 | 1356.2
x2 = 0.6999 | 886.398 | 1.41919 | 1370.3
x2 = 0.7433 | 893.368 | 1.42032 | 1380.8
x2 = 0.8482 | 911.958 | 1.42329 | 1408.7
x2 = 0.8634 | 914.867 | 1.42376 | 1413.1
x2 = 0.8985 | 921.855 | 1.42488 | 1423.7
x2 = 0.948 | 932.305 | 1.42651 | 1439.5

CC(C)=O [acetone]
Settings | mass density, 293.15 K [kg/m3] | mass density, 298.15 K [kg/m3] | mass density, 303.15 K [kg/m3] | refractive index, 293.15 K | refractive index, 298.15 K | speed of sound, 293.15 K [m/s] | speed of sound, 298.15 K [m/s] | speed of sound, 303.15 K [m/s]
[1] | 790.19 | 784.43 | 778.63 | – | – | 1183.6 | 1163.6 | 1139.9
[2] | – | – | – | 1.35845 | 1.35386 | – | – | –

CCC(C)=O [butanone]
Settings | mass density, 293.15 K [kg/m3] | mass density, 298.15 K [kg/m3] | mass density, 303.15 K [kg/m3] | refractive index, 293.15 K | refractive index, 298.15 K | refractive index, 303.15 K | speed of sound, 293.15 K [m/s] | speed of sound, 298.15 K [m/s] | speed of sound, 303.15 K [m/s]
[1] | 805.06 | 799.78 | 794.55 | – | – | – | 1212.6 | 1191.5 | 1172
[2] | – | – | – | 1.37872 | 1.37605 | 1.37351 | – | – | –

CN(C)C=O [dimethylformamide]
Settings | mass density, 293.15 K [kg/m3] | mass density, 298.15 K [kg/m3] | mass density, 303.15 K [kg/m3] | refractive index, 293.15 K | refractive index, 298.15 K | refractive index, 303.15 K | speed of sound, 293.15 K [m/s] | speed of sound, 298.15 K [m/s] | speed of sound, 303.15 K [m/s]
[1] | 948.82 | 944.06 | 939.28 | – | – | – | 1476.7 | 1458.6 | 1438.8
[2] | – | – | – | 1.43055 | 1.4284 | 1.4261 | – | – | –

CN(C)C=O [dimethylformamide] + CC(C)=O
x1 = 1
Settings | mass density, 293.15 K [kg/m3] | mass density, 298.15 K [kg/m3] | mass density, 303.15 K [kg/m3] | refractive index, 293.15 K | refractive index, 298.15 K | speed of sound, 293.15 K [m/s] | speed of sound, 298.15 K [m/s] | speed of sound, 303.15 K [m/s]
[3] | 948.82 | 944.06 | 939.28 | – | – | 1476.7 | 1458.6 | 1438.8
[4] | – | – | – | 1.43055 | 1.4284 | – | – | –

CN(C)C=O [dimethylformamide] + CCC(C)=O
x1 = 1
Settings | mass density, 293.15 K [kg/m3] | mass density, 298.15 K [kg/m3] | mass density, 303.15 K [kg/m3] | refractive index, 293.15 K | refractive index, 298.15 K | refractive index, 303.15 K | speed of sound, 293.15 K [m/s] | speed of sound, 298.15 K [m/s] | speed of sound, 303.15 K [m/s]
[3] | 948.82 | 944.06 | 939.28 | – | – | – | 1476.7 | 1458.6 | 1438.8
[4] | – | – | – | 1.43055 | 1.4284 | 1.4261 | – | – | –

CN(C)C=O [dimethylformamide] + CCCC(C)=O
x1 = 1
Settings | mass density, 293.15 K [kg/m3] | mass density, 298.15 K [kg/m3] | mass density, 303.15 K [kg/m3] | refractive index, 293.15 K | refractive index, 298.15 K | refractive index, 303.15 K | speed of sound, 293.15 K [m/s] | speed of sound, 298.15 K [m/s] | speed of sound, 303.15 K [m/s]
[3] | 948.82 | 944.06 | 939.28 | – | – | – | 1476.7 | 1458.6 | 1438.8
[4] | – | – | – | 1.43055 | 1.4284 | 1.4261 | – | – | –

CN(C)C=O [dimethylformamide] + CCCCCC(C)=O
298.15 K, x1 = 1
Settings | mass density [kg/m3] | refractive index | speed of sound [m/s]
[3] | 944.06 | – | 1458.6
[4] | – | 1.4284 | –

CCCC(C)=O [pentan-2-one]
Settings | mass density, 293.15 K [kg/m3] | mass density, 298.15 K [kg/m3] | mass density, 303.15 K [kg/m3] | refractive index, 293.15 K | refractive index, 298.15 K | refractive index, 303.15 K | speed of sound, 293.15 K [m/s] | speed of sound, 298.15 K [m/s] | speed of sound, 303.15 K [m/s]
[1] | 806.83 | 801.99 | 796.73 | – | – | – | 1232.4 | 1211.9 | 1191.7
[2] | – | – | – | 1.39026 | 1.38793 | 1.38523 | – | – | –
